The values that follow come from US20080145427A1, “Dosage Forms Providing Controlled and Immediate Release of Cholesteryl Ester Transfer Protein Inhibitors and Immediate Release of Hmg-Coa Reductase Inhibitors” (priority 2005, published 2008).

This data set can be described thus: Aqueous solubility of torcetrapib. The data set is classed as physicochemical. Particulars: aqueous environment, at about 22° C. unless otherwise specified. Here is the method: The CETP inhibitor may be any compound capable of inhibiting the cholesteryl ester transfer protein. The CETP inhibitor is typically “sparingly water-soluble,” which means that the CETP inhibitor has a minimum aqueous solubility of less than about 1 to 2 mg/mL at any physiologically relevant pH (e.g., pH 1-8) and at about 22° C. Many CETP inhibitors are “substantially water-insoluble,” which means that the CETP inhibitor has a minimum aqueous solubility of less than about 0.01 mg/mL (or 10 μg/mL) at any physiologically relevant pH (e.g., pH 1-8) and at about 22° C. (Unless otherwise specified, reference to aqueous solubility herein and in the claims is determined at about 22° C.) Compositions of the present invention find greater utility as the solubility of the CETP inhibitors decreases, and thus are preferred for CETP inhibitors with solubilities less than about 10 μg/mL, and even more preferred for CETP inhibitors with solubilities less than about 1 μg/mL. Many CETP inhibitors have even lower solubilities (some even less than 0.1 μg/mL), and require dramatic concentration enhancement to be sufficiently bioavailable upon oral dosing for effective plasma concentrations to be reached at practical doses. […]

Turning to `CCOC(=O)N1c2ccc(C(F)(F)F)cc2[C@@H](N(Cc2cc(C(F)(F)F)cc(C(F)(F)F)c2)C(=O)OC)C[C@H]1CC` [torcetrapib, [2R,4S]-4-[(3,5-bis-trifluoromethyl-benzyl)-methoxycarbonyl-amino]-2-ethyl-6-trifluoromethyl-3,4-dihydro-2H-quinoline-1-carboxylic acid ethyl ester], the solubility was < 0.04 µg/mL.

Broadly, the solubility is the dissolved amount per volume that the medium holds. A higher solubility goes with much dissolved substance.
